Data as given in the supplement of paper PMC10307832.

Legend:
Assay in all cases: relative viability (nuclei count vs DMSO), 5 days (fraction); higher = more cells survive
AGI-6780 + Bortezomib = compound: O=C(Nc1cccc(C(F)(F)F)c1)Nc1cc(S(=O)(=O)NC2CC2)ccc1-c1ccsc1 [AGI-6780] + CC(C)C[C@H](NC(=O)[C@H](Cc1ccccc1)NC(=O)c1cnccn1)B(O)O [Bortezomib] (partner 0.002 µM)
Outline: (§1)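 After 5 days of treatment, lung cancer cells in 1536-well plates were fixed and stained in a single step (final 0.05% Triton X-100, 1% formaldehyde, 1 ug/ml Hoechst) and their nuclei counted on 4× images. Treatment had been applied by pin tool the day after seeding as one drug alone or as a fixed anchor-drug dose with five library-drug doses (not always all listed) in √10 steps. Relative viability is the nuclei count of treated wells divided by that of vehicle wells, and values are medians of duplicate plates.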

AGI-6780 + Luminespib = compound: O=C(Nc1cccc(C(F)(F)F)c1)Nc1cc(S(=O)(=O)NC2CC2)ccc1-c1ccsc1 [AGI-6780] + CCNC(=O)c1noc(-c2cc(C(C)C)c(O)cc2O)c1-c1ccc(CN2CCOCC2)cc1 [Luminespib] (partner 0.01 µM)
Outline: as §1

AGI-6780 + Palbociclib = compound: O=C(Nc1cccc(C(F)(F)F)c1)Nc1cc(S(=O)(=O)NC2CC2)ccc1-c1ccsc1 [AGI-6780] + CC(=O)c1c(C)c2cnc(Nc3ccc(N4CCNCC4)cn3)nc2n(C2CCCC2)c1=O [Palbociclib] (partner 0.5 µM)
Outline: as §1

AGI-6780 + Dasatinib = compound: O=C(Nc1cccc(C(F)(F)F)c1)Nc1cc(S(=O)(=O)NC2CC2)ccc1-c1ccsc1 [AGI-6780] + Cc1nc(Nc2ncc(C(=O)Nc3c(C)cccc3Cl)s2)cc(N2CCN(CCO)CC2)n1 [Dasatinib] (partner 0.075 µM)
Outline: as §1

| Cell Line | relative viability (AGI-6780 + Bortezomib; first compound 0.08 µM) | relative viability (AGI-6780 + Bortezomib; first compound 0.253 µM) | relative viability (AGI-6780 + Bortezomib; first compound 0.8 µM) | relative viability (AGI-6780 + Bortezomib; first compound 2.53 µM) | relative viability (AGI-6780 + Bortezomib; first compound 8 µM) | relative viability (AGI-6780 + Luminespib; first compound 0.08 µM) | relative viability (AGI-6780 + Luminespib; first compound 0.253 µM) | relative viability (AGI-6780 + Luminespib; first compound 0.8 µM) | relative viability (AGI-6780 + Luminespib; first compound 2.53 µM) | relative viability (AGI-6780 + Luminespib; first compound 8 µM) | relative viability (AGI-6780 + Palbociclib; first compound 0.08 µM) | relative viability (AGI-6780 + Palbociclib; first compound 0.253 µM) | relative viability (AGI-6780 + Palbociclib; first compound 0.8 µM) | relative viability (AGI-6780 + Palbociclib; first compound 2.53 µM) | relative viability (AGI-6780 + Palbociclib; first compound 8 µM) | relative viability (AGI-6780 + Dasatinib; first compound 0.08 µM) | relative viability (AGI-6780 + Dasatinib; first compound 0.253 µM) | relative viability (AGI-6780 + Dasatinib; first compound 0.8 µM) | relative viability (AGI-6780 + Dasatinib; first compound 2.53 µM) | relative viability (AGI-6780 + Dasatinib; first compound 8 µM) |
| --- | --- | --- | --- | --- | --- | --- | --- | --- | --- | --- | --- | --- | --- | --- | --- | --- | --- | --- | --- | --- |
| COR-L23 | 1.05 | 0.96 | 0.814 | 0.935 | 0.851 | 0.772 | 0.641 | 0.695 | 0.663 | 0.643 | 0.322 | 0.257 | 0.298 | 0.277 | 0.329 | 0.548 | 0.42 | 0.529 | 0.496 | 0.488 |
| LK-2 | – | – | – | – | – | 0.189 | 0.169 | 0.183 | – | 0.202 | 0.671 | 0.643 | 0.823 | – | 0.679 | 0.242 | 0.298 | 0.286 | – | 0.315 |
| PC-14 | 0.899 | 0.71 | 0.917 | 0.793 | 0.934 | 0.228 | 0.195 | 0.171 | 0.118 | 0.121 | 0.533 | 0.538 | 0.568 | 0.553 | 0.546 | 0.233 | 0.256 | 0.308 | 0.276 | 0.24 |
| SW 1573 | 1.01 | 1.1 | 0.915 | 0.69 | 0.879 | 0.462 | 0.398 | 0.216 | 0.216 | 0.287 | 0.399 | 0.332 | 0.479 | – | 0.37 | 0.467 | 0.516 | 0.442 | – | 0.531 |
| NCI-H2085 | 1.04 | 1.09 | 1.02 | 1.08 | 1.13 | 0.409 | 0.457 | 0.482 | 0.347 | 0.39 | 0.469 | 0.5 | 0.469 | 0.535 | 0.5 | 0.272 | 0.255 | 0.276 | 0.24 | 0.243 |
| NCI-H441 | 0.514 | 0.601 | 0.831 | 0.45 | 0.387 | 0.346 | 0.333 | 0.41 | 0.302 | 0.361 | 0.248 | 0.259 | 0.232 | 0.195 | 0.263 | 0.669 | 0.639 | 0.597 | 0.548 | 0.472 |
| NCI-H1648 | – | – | – | – | – | – | – | – | – | – | 0.242 | 0.232 | 0.335 | 0.26 | 0.25 | – | – | – | – | – |
| NCI-H2126 | 1.17 | 1.07 | 1.11 | 1.09 | 1.09 | 0.984 | 0.843 | 0.95 | 0.9 | 0.856 | 0.38 | 0.357 | 0.36 | 0.391 | 0.341 | 0.632 | 0.657 | 0.566 | 0.381 | 0.586 |
| LXF-289 | 1.02 | 0.993 | 0.976 | 1.03 | 0.957 | 0.776 | 0.723 | 0.679 | 0.606 | 0.659 | 0.606 | 0.65 | 0.586 | 0.586 | 0.6 | 0.228 | 0.213 | 0.192 | 0.155 | 0.204 |
| HCC-44 | 0.927 | 0.887 | 0.884 | 0.843 | 0.928 | 1.18 | 1.01 | 1.16 | 1.09 | 0.982 | 0.969 | 0.978 | 0.959 | 0.99 | 0.966 | – | – | – | – | – |
| EMC-BAC-2 | 1.14 | 1.03 | 1.1 | 0.856 | 1.14 | 1.2 | 1.24 | 1.17 | 0.947 | 1.18 | – | 0.535 | 0.487 | 0.437 | 0.543 | 0.313 | 0.338 | 0.311 | 0.273 | 0.334 |
| NCI-H522 | – | – | – | – | – | 1.18 | 1.14 | 1.1 | 1.12 | 1.17 | 0.97 | 0.972 | 0.968 | – | 0.86 | 0.941 | 0.85 | 1.01 | 0.812 | 0.836 |
| NCI-H1792 | 0.834 | 0.917 | 1.01 | 0.867 | 0.862 | 0.52 | 0.354 | 0.371 | 0.443 | 0.366 | – | 0.574 | 0.668 | 0.66 | 0.615 | – | 0.859 | 0.663 | 0.719 | 0.728 |
| NCI-H661 | 0.78 | 0.933 | 0.758 | 0.694 | 0.771 | 0.928 | 0.938 | 0.951 | 1.01 | 0.87 | 0.418 | 0.41 | 0.411 | 0.371 | 0.432 | 0.819 | 0.998 | 0.986 | 0.858 | 1.02 |
| LCLC-103H | 1.11 | 1.17 | 1.02 | 0.939 | 1.18 | 1.07 | 0.896 | 0.986 | 0.971 | 0.963 | 0.487 | 0.476 | 0.526 | 0.445 | 0.463 | 0.462 | 0.565 | 0.51 | 0.318 | 0.503 |
| NCI-H1793 | – | – | – | – | – | 0.211 | 0.162 | 0.175 | 0.155 | 0.207 | 0.347 | 0.328 | 0.342 | 0.262 | 0.287 | 0.399 | 0.389 | 0.455 | 0.263 | 0.41 |
| HOP-62 | 0.496 | 0.818 | 0.737 | 1.02 | 0.763 | 0.963 | 0.983 | 0.925 | 1 | 0.95 | 0.375 | 0.47 | 0.516 | 0.467 | 0.543 | 0.713 | 0.642 | 0.633 | 0.634 | 0.63 |
| HCC-827 | 0.927 | 1.1 | 0.996 | 1.12 | 1.15 | 0.584 | 0.586 | 0.707 | 0.467 | 0.454 | 0.485 | 0.488 | 0.478 | 0.466 | 0.481 | 0.363 | 0.23 | 0.337 | 0.273 | 0.293 |
